Measured values from patent publication US10023538B2, “Compounds, compositions and associated methods comprising 3-aryl quinolines” (Oregon Health & Science University, priority 2012, dated 2018).
Where two headings read alike, the source gives them in different places.

Key:
[1] = system: P. falciparum strain Dd2; experiment: Antiplasmodial fluorescence-based SyBr Green assay, strain Dd2; type: cell-based, Plasmodium falciparum
Protocol: (§1) The IC50 values listed in Table 1 were determined by the fluorescence-based SyBr Green assay described in Smilkstein (Smilkstein M, Antimicrob Agents Chemother 48, 1803-1806 (2004)). Values are the mean of at least two experiments, each performed in triplicate. […] NT=not tested.

[2] = system: P. falciparum strain Tm90.C2B; experiment: Antiplasmodial activity against strain Tm90.C2B; type: cell-based, Plasmodium falciparum
Protocol: as §1
Furthermore, Compound 1 was evaluated against the strain Tm90.C2B.

[3] = system: P. falciparum strain 7G8; experiment: Antiplasmodial fluorescence-based SyBr Green assay, strain 7G8; type: cell-based, Plasmodium falciparum
Protocol: as §1

[4] = system: P. falciparum strain D6; experiment: Antiplasmodial fluorescence-based SyBr Green assay, strain D6; type: cell-based, Plasmodium falciparum
Protocol: as §1

[5] = system: P. yoelii; experiment: In vivo efficacy, P. yoelii mouse model of malaria (Strain K model); parameters: species or system female CF1 mice; details: P. yoelii / CF1 mice
Protocol: The efficacy of Compound 1 in vivo using a P. yoelii mouse model of malaria (Strain K model) was studied. Female CF1 mice were inoculated intravenously with 1-2 million infected red blood cells obtained from infected donor animals. Infected cells were collected then randomly sorted into groups of four mice on Day 0. Drug administration began on Day 1. […] Both drugs were administered daily by gavage as the dihydrochloride salt dissolved in 100 μl of water for Days, 1, 2, 3, and 4. Blood films were prepared on Day 5 (the day after the final drug dose), fixed in methanol, stained with Giemsa, and viewed microscopically to assess parasitemia.

[6] = system: P. falciparum strains; experiment: Antiplasmodial IC50 across P. falciparum strains (average / range); type: cell-based, Plasmodium falciparum
Protocol: as §1

[7] = Cytotoxicity vs. murine splenic lymphocytes; type: cell-based; details: mouse
[8] = biological target: hERG potassium channel (Homo sapiens, UniProt Q12809); experiment: hERG channel inhibition, QPatch HT automatic parallel patch clamp; type: cell-based; details: hERG current expressed in mammalian cells, room temperature, tested at 1, 4, 12 μM in duplicate
[9] = Heme binding affinity in solution (UV/visible titration, NMR); details: 20 mM phosphate buffer, pH 7.0, 25° C.; titration and NMR
Protocol: The binding affinity of Compound 1 and heme in solution was assessed as described by Kelly (Kelly, J X et al, Antimicrob Agents Chemother 46, 144-150 (2002); Kelly J X et al, Mol Biochem Parasitol 123, 47-54 (2002)). This assay correlates heme binding affinity and the mode of binding (i.e., binding to heme monomer or dimer) to intrinsic antimalarial activity in vitro and in vivo.
Association constants for heme-drug complexes were determined with all titrations conducted under aqueous conditions in 20 mM phosphate buffer, at pH 7.0 and 25° C. Titrations with compounds were performed by successive addition of aliquots of a 1 mM stock solution to a 10 μM heme solution at constant pH. All UV/visible spectral data was analyzed digitally with absorbance readings and concentrations corrected for dilution effects. The resulting titration curves were analyzed with Hill plot (Cantor and Schimmel, Biophysical Chemistry, W H Freeman and Co, New York, 1980) and non-linear curve fitting methods (Connors, Chemical Kinetics, VCH Publishers, New York, 1990). Titration curves were fit to the most accurate binding isotherm and stoichiometry.
Heme:drug interaction was assessed by NMR. NMR investigations involving Compound 1 binding to heme were performed as described in Kelly (Kelly, et al, supra).

[10] = Plasmodium falciparum, P. falciparum Dd2, multidrug resistant, mean of at least two experiments in triplicate, read-out: IC50 Values (nM) Strain Dd2
[11] = Plasmodium falciparum, P. falciparum Tm90.C2B, multidrug and atovaquone resistant, unit inferred, read-out: IC50 value against strain Tm90.C2B
[12] = Plasmodium falciparum, P. falciparum 7G8, multidrug resistant, mean of at least two experiments in triplicate, read-out: IC50 Values (nM) Strain 7G8
[13] = Plasmodium falciparum, D6; read-out: IC50 Values (nM) Strain D6
[14] = Plasmodium falciparum, DD2, read-out: IC50 Values (nM) Strain Dd2
[15] = Plasmodium falciparum, 7G8, read-out: IC50 Values (nM) Strain 7G8
[16] = Plasmodium falciparum, D6, read-out: IC50 Values (nM) Strain D6
[17] = P. falciparum Dd2, multidrug resistant, mean of at least two experiments in triplicate, read-out: IC50 Values (nM) Strain Dd2
[18] = P. falciparum 7G8, multidrug resistant, mean of at least two experiments in triplicate, read-out: IC50 Values (nM) Strain 7G8
[19] = P. falciparum D6, chloroquine sensitive; mean of at least two experiments in triplicate; read-out: IC50 Values (nM) Strain D6

Chain of hERG potassium channel (Q12809 whole entry): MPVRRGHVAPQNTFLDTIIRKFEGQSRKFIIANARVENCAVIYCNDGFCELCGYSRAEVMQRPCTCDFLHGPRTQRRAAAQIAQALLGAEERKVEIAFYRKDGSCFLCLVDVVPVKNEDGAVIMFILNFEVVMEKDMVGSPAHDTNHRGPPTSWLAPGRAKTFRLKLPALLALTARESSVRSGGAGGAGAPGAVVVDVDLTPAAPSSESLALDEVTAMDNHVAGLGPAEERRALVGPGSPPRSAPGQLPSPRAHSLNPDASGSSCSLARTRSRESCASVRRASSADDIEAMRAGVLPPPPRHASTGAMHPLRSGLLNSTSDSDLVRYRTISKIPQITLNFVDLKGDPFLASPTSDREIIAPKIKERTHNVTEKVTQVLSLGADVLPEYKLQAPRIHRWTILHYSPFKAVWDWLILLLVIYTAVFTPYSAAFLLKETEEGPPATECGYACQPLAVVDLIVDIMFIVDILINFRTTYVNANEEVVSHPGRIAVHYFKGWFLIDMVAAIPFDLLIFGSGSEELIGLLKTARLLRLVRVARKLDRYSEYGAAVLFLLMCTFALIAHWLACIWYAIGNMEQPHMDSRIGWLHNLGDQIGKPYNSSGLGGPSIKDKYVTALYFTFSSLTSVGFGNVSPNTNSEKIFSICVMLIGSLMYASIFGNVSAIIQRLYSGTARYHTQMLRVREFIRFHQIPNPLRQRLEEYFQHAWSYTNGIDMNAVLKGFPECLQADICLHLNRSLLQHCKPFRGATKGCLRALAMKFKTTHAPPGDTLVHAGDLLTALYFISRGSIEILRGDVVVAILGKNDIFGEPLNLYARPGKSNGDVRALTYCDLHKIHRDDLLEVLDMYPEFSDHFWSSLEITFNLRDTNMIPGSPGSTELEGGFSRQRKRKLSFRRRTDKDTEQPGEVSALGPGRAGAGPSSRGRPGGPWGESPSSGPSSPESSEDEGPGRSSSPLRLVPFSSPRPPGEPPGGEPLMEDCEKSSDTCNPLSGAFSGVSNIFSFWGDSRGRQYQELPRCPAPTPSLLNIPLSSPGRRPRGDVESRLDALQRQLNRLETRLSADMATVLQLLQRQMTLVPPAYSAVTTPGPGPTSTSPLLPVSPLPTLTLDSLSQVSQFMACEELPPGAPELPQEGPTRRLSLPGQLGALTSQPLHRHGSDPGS

| SMILES | IC50 [1, 10] [nM] | IC50 [3, 12] [nM] | IC50 [4, 13] [nM] | further results |
| --- | --- | --- | --- | --- |
| O=C1C(O)=C([C@H]2CC[C@H](c3ccc(Cl)cc3)CC2)C(=O)c2ccccc21 [Atovaquone, reference compound] | 0.1 | 0.1 | 0.1 | IC50 [2, 11]: 7700 nM |
| CCN(CC)CCCC(C)Nc1ccnc2cc(Cl)ccc12 (stereo not shown) [Chloroquine, reference compound] | – | – | – | IC50 [1, 14]: 120 nM; IC50 ([2]; Plasmodium falciparum, TM90, read-out: IC50 value against strain Tm90.C2B): 106 nM; IC50 [3, 15]: 78 nM; Cure of animals ([5]; at dosages as high as 64 mg/kg/day): did not cure any of the animals; IC50 [4, 16]: 9.2 nM |
| CC(C)(C)NCCCNc1c(-c2ccc(OC(F)(F)F)cc2)cnc2cc(Cl)ccc12 [Compound 1, N1-(tert-butyl)-N3-(7-chloro-3-(4-(trifluoromethoxy)phenyl)-quinolin-4-yl)-propane-1,3-diamine] | 1.4 | 1.3 | 0.9 | IC50 ([6]; Plasmodium falciparum, average over strains, read-out: Avg IC50 values vs P. falciparum strains): 1.2 nM; IC50 [2, 11]: 1.3 nM; ED50 ([5]; gavage daily Days 1-4, parasitemia Day 5, drugs given as salts): 0.25 mg/kg/day; Cure of animals ([5]; at 16 and 64 mg/kg/day): cured all animals; IC50 [7]: 4980 nM; IC50 [8]: 4000 nM; Affinity for free heme [9]: strong affinity for free heme |
| CC(C)(C)NCCCNc1c(-c2ccc(Cl)cc2)cnc2cc(Cl)ccc12 [Compound 2] | 15 | 5.8 | 8 | – |
| CC(C)(C)NCCCNc1c(-c2ccccc2)cnc2cc(Cl)ccc12 [Compound 3] | 17 | 6.4 | 8.7 | – |
| CC(C)(C)NCCCNc1c(-c2ccc(C(F)(F)F)cc2)cnc2cc(Cl)ccc12 [Compound 4] | 11.9 | 9.7 | 4.8 | – |
| CC(C)(C)NCCCNc1c(-c2ccc(C(F)(F)F)nc2)cnc2cc(Cl)ccc12 [Compound 5] | 89 | 132 | 55.2 | – |
| CC(C)(C)NCCCNc1c(-c2ccc(Oc3ccc(OC(F)(F)F)cc3)cc2)cnc2cc(Cl)ccc12 [Compound 6] | 3.3 | 1.6 | 2.3 | – |
| CC(C)(C)NCCCNc1c(-c2ccc(-c3ccccc3)cc2)cnc2cc(Cl)ccc12 [Compound 7] | 2.9 | 1.4 | 0.9 | – |
| CC(C)(C)NCCCNc1c(-c2ccc(-c3ccc(OC(F)(F)F)cc3)cc2)cnc2cc(Cl)ccc12 [Compound 8] | – | – | – | IC50 [1, 17]: 5.9 nM; IC50 [3, 18]: 8.3 nM; IC50 [4, 19]: 5.3 nM |
| CC(C)(C)NCCCNc1c(-c2ccc(F)cc2)cnc2cc(Cl)ccc12 [Compound 10] | – | – | – | IC50 [1, 17]: 11.7 nM; IC50 [3, 18]: 32.8 nM; IC50 [4, 19]: 13.1 nM |
| COc1ccc(-c2cnc3cc(Cl)ccc3c2NCCCNC(C)(C)C)cc1 [Compound 11] | 11.7 | 20.6 | 9.5 | – |
| CN(C)c1ccc(-c2cnc3cc(Cl)ccc3c2NCCCNC(C)(C)C)cc1 [Compound 12] | 7 | 11.7 | 5.1 | – |
| CC(C)(C)NCCCNc1c(-c2ccc(OC(F)F)cc2)cnc2cc(Cl)ccc12 [Compound 13] | 4.9 | 5.6 | 2.4 | – |
| CC(C)(C)NCCCNc1c(-c2ccc(N3CCOCC3)cc2)cnc2cc(Cl)ccc12 [Compound 14] | 6.7 | 8.2 | 4.4 | – |
| CC(C)(C)NCCCNc1c(-c2ccc(CN3CCOCC3)cc2)cnc2cc(Cl)ccc12 [Compound 15] | – | – | – | IC50 [1, 17]: 0.9 nM; IC50 [3, 18]: 0.9 nM; IC50 [4, 19]: 0.8 nM |
| CC(C)(C)NCCCNc1c(-c2ccc(Br)cc2)cnc2cc(Cl)ccc12 [Compound 16] | – | – | – | IC50 [1, 17]: < 2.5 nM; IC50 [3, 18]: 2.5 nM; IC50 [4, 19]: < 2.5 nM |
| CC(C)(C)NCCCNc1c(-c2ccc(C#N)cc2)cnc2cc(Cl)ccc12 [Compound 17] | 21.8 | 26.3 | 13.5 | – |
| CC(C)(C)NCCCNc1c(-c2cccc(OC(F)(F)F)c2)cnc2cc(Cl)ccc12 [Compound 18] | < 2.5 | < 2.5 | < 2.5 | – |
| FC(F)(F)Oc1ccc(-c2cnc3cc(Cl)ccc3c2NCCC2CCCCN2)cc1 (stereo not shown) [Compound 22] | 1.8 | < 2.5 | 0.7 | – |
| CCN(CC)CCNc1c(-c2ccc(OC(F)(F)F)cc2)cnc2cc(Cl)ccc12 [Compound 23] | 80 | 93 | 35 | – |
| CCN(CC)CCCNc1c(-c2ccc(OC(F)(F)F)cc2)cnc2cc(Cl)ccc12 [Compound 24] | – | – | – | IC50 [1, 17]: 4.4 nM; IC50 [3, 18]: 8.5 nM; IC50 [4, 19]: 3.4 nM |
| CCN(CC)CCCC(C)Nc1c(-c2ccc(OC(F)(F)F)cc2)cnc2cc(Cl)ccc12 (stereo not shown) [Compound 25] | 7.8 | 11.1 | 3.5 | – |
| CC(C)(C)NCCNc1c(-c2ccc(OC(F)(F)F)cc2)cnc2cc(Cl)ccc12 [Compound 26] | – | – | – | IC50 [1, 17]: 4.9 nM; IC50 [3, 18]: 4.5 nM; IC50 [4, 19]: 0.6 nM |
| CCN(CC)CCCC(C)Nc1c2ccc(Cl)cc2nc2ccc(OC)cc12 (stereo not shown) [Quinacrine, reference compound] | – | – | – | IC50 [1, 14]: 10 nM; IC50 [3, 15]: 9 nM; IC50 [4, 16]: 5 nM |
| C=C[C@H]1C[N@@]2CC[C@H]1C[C@H]2[C@H](O)c1ccnc2ccc(OC)cc12 [Quinine, reference compound] | 87 | 30 | 19 | IC50 [2, 11]: 96 nM |
| CCN(CC)CCCC(C)Nc1c(C)cnc2cc(Cl)ccc12 (stereo not shown) [Sontochin, reference compound] | – | – | – | IC50 [1, 17]: 19 nM; IC50 ([6]; range over Table 1 strains, read-out: IC50 values against the drug resistant strains of P. falciparum (range)): 8 to 20 nM; IC50 ([2]; P. falciparum Tm90.C2B, multidrug and atovaquone resistant, unit inferred, read-out: IC50 value against strain Tm90.C2B): 19.1 nM; IC50 [3, 18]: 20 nM; IC50 [4, 19]: 8 nM |
